Here are results for 2 compounds from patent US6903130B1, “Pyrrolidineacetamide derivative alone or in combination for treatment of cns disorders” (UCB S.A., priority 1999, dated 2005).

Data set [1] has as its system 55 different binding sites including different receptor systems, reuptake sites, second messenger systems and channel proteins. The note with it: in vitro; cited from earlier work.
The subject of a further data set is healthy volunteers. In words: Clinical studies, tolerability in healthy volunteers. It counts as in vivo, human.
Data set [2] relates to chloride fluxes induced by muscimol. The note with it: cited from earlier work.
Data set [3] relates to diabetic rats (streptozocin-induced diabetic neuropathy). In words: Randall and Selitto test, mechanical hyperalgesia in streptozotocin diabetic rats. It counts as in vivo, rat. The source says: In order to study the activity of levetiracetam with respect to chronic or neuropathic pain, the Applicant carried out a series of experiments based on the Randall test “A method for measurement of analgesic activity on inflamed tissue; Arch. Int. pharmacodyn., 1957, CXI, No4. P 409-419”. By virtue of this protocol, it was possible to determine the ability of levetiracetam to correct hyperalgesia secondary to induction of a neuropathic problem of metabolic origin in a rodent.
The diabetic neuropathy thereby induced allowed the correction of the hyperalgesia caused by the use of levetiracetam to be measured.
The animals used for these experiments were male Sprague-Dawley rats (Charles River, France), weighing 250-280 grams (g), which had undergone induction of diabetes one week after receipt. Male Sprague-Dawley rats (200-220 g) received one interperitoneal injection of streptozocin (75 mg/kg, i.p.) (Zanosar, Upjohn, France) dissolved in distilled water. Hyperglycaemia was confirmed one week after induction by determining the quantity of blood glucose (caudal puncture) using a Dextrostix reactive strip (Ames) read using a calorimeter (Ames Division, Miles Laboratoires, France). Animals with more than 14 millimoles (mM) were considered to be diabetic. The pain thresholds were determined 3 weeks after induction of diabetes.
This model was used in accordance with the description in COURTEIX et al., “Streptozocin-induced diabetic rats. Behavioural evidence for a model of chronic pain” Pain (1993), vol. 53, p81-88. The study was performed using the following compounds: • […]: (Laboratories UCB), dissolved in distilled water. • CARBAMAZEPINE: (Sigma), dissolved in hydroxy propel methylcellulose.
As has already been mentioned above, the test explained below was performed to stimulate a reaction in the animal with a mechanical nociceptive stimulus to a hind paw. An increasing pressure was applied using an analgesia meter (Ugo Basile, type 7200), until a cry was emitted which was considered to be the pain threshold, expressed in grams.
After determining the base thresholds, the animals received the study treatments (vehicle, levetiracetam, 17, 54, 95.2 and 120 mg/kg, carbamazepine, 10 and 30 mg/kg) administered intraperitoneally (i.p.) using the equal block method to avoid any chronobiological influence. The effects of different treatments were thus determined during the same time period. The reaction thresholds were measured 15, 30, 45, 60, 90, 120 and 180 minutes (min) after administration. All of the experiments were performed blind with 8 different animals per treatment.
The results are expressed as means±standard error of mean (S.E.M.).
The dose which could overcome 50% of the hyperalgesia induced by diabetes was calculated as the “anti-hyperalgesic dose effective 50”.
Statistical comparison was carried out by means of a two-way analysis of variance followed by Fischer's PLSD multiple comparison test to analyze the temporal effect.

Data set [4] in a line: Plasma and brain levels after oral dosing in sound-sensitive mice. The settings on record: male, genetically sound-sensitive, derived from a DBA strain, mouse, brain, po, 166.2 mg/kg. The procedure:
Male genetically sound-sensitive mice (17-30 g; N=10), derived from a DBA strain originally selected by Dr Lehmann of the Laboratory of Acoustic Physiology (Paris) and bred in the UCB Pharma Sector husbandry unit since 1978, were submitted to the induction of audiogenic seizures. Levetiracetam (5.4 mg/kg) and sodium valproate (166.2 mg/kg) were administered orally, alone or in combination, 60 minutes before the induction of audiogenic seizures. For testing audiogenic seizure, the mice were placed in the cages, one mouse per cage, in the sound-attenuated chamber. After a period of habituation of 30 seconds, the acoustic stimulus (90 dB, 10-20 kHz) was delivered for 30 seconds via the loud speakers. During this interval, the mice were observed and the presence of the 3 phases of the seizure activity, namely wild running, clonic and tonic convulsions, was recorded.
In all animals, blood samples were collected immediately after the seizure test (I h after dosing) by cardiac puncture under light carbon dioxide anesthesia, into heparinised microtubes. […] Levetiracetam was measured in plasma and brain samples by validated gas chromatography assay with mass detection. With sodium valproate, fluorescence polarization immunoassays were used.
The mean value plus standard deviation was calculated for plasma and brain concentrations of valproate and levetiracetam, and for the brain/plasma ratio. […]

Marks after values point to notes of the source that are not given here.

Consider `CC[C@@H](C(N)=O)N1CCCC1=O` [Levetiracetam, (S)-(−)α-ethyl-2-oxo-1-pyrrolidineacetamide], for which the “displacement of ligands specific for 55 different binding sites” value in data set [1] is listed as “not revealed any significant displacement”. In addition, the “tolerability (in words)” value with healthy volunteers (repeated doses 1500 mg/day for 14 days) and with healthy volunteers (single dose) was “well tolerated” in each case. Also, in data set [2], the “modulation of chloride fluxes induced by muscimol” value is recorded as “did not modulate”. Also, the “anti-hyperalgesic effective dose 50” value in data set [3] (dose overcoming 50% of the hyperalgesia induced by diabetes, i.p.) amounted to 35.1 ± 1.8 mg/kg. Besides, the “Effect on diabetic hyperalgesia (in words)” value in data set [3] (i.p., diabetic rats) is reported as “a dose of 120 mg/kg of levetiracetam caused complete correction of hyperalgesia”. In addition, the vocalization threshold in data set [3] (levetiracetam 17 mg/kg i.p. group, before diabetes (baseline), mean (SEM)) is 282.2 (5.48) g; in data set [3] (levetiracetam 17 mg/kg i.p., 15 min after injection) it was 211.9 (7.19)* g; in data set [3] (levetiracetam 17 mg/kg i.p., 30 min after injection), 206.3 (10.12)* g; in data set [3] (levetiracetam 17 mg/kg i.p., 45 min after injection), 193.1 (7.19) g; in data set [3] (levetiracetam 17 mg/kg i.p., 60 min after injection), 185.6 (4.86) g; in data set [3] (levetiracetam 17 mg/kg i.p., 90 min after injection), 178.1 (3.40) g. For the same compound, the vocalization threshold in data set [3] (levetiracetam 17 mg/kg i.p., 120 min after injection) is given as 180.0 (2.83) g; in data set [3] (levetiracetam 17 mg/kg i.p., 180 min after injection), 176.3 (2.45) g; in data set [3] (levetiracetam 17 mg/kg i.p., after diabetes, 0 min (base threshold)), 181.9 (3.09) g; in data set [3] (levetiracetam 54 mg/kg i.p. group, before diabetes (baseline), mean (SEM)), 296.3 (10.12) g; in data set [3] (levetiracetam 54 mg/kg i.p., 15 min after injection), 238.1 g; in data set [3] (levetiracetam 54 mg/kg i.p., 30 min after injection), 243.8 (15.97)* g. The vocalization threshold in data set [3] (levetiracetam 54 mg/kg i.p., 45 min after injection) is 230.6 g; in data set [3] (levetiracetam 54 mg/kg i.p., 60 min after injection), 189.4 (13.87) g; in data set [3] (levetiracetam 54 mg/kg i.p., 90 min after injection), 176.3 (8.39) g; in data set [3] (levetiracetam 54 mg/kg i.p., 120 min after injection) it was 176.3 (6.80) g; in data set [3] (levetiracetam 54 mg/kg i.p., 180 min after injection) it was 176.3 (6.80) g; in data set [3] (levetiracetam 54 mg/kg i.p., after diabetes, 0 min (base threshold)), 180.0 (5.30) g. For the same compound, the vocalization threshold is recorded as 306.6 (11.73) g in data set [3] (levetiracetam 95.2 mg/kg i.p. group, before diabetes (baseline), mean (SEM)); 264.4 g in data set [3] (levetiracetam 95.2 mg/kg i.p., 15 min after injection); 283.1 (24.62)* g in data set [3] (levetiracetam 95.2 mg/kg i.p., 30 min after injection); 234.4 g in data set [3] (levetiracetam 95.2 mg/kg i.p., 45 min after injection); 180.0 (12.36) g in data set [3] (levetiracetam 95.2 mg/kg i.p., 60 min after injection); 180.0 (8.02) g in data set [3] (levetiracetam 95.2 mg/kg i.p., 90 min after injection). The vocalization threshold is recorded as 159.4 (3.95) g in data set [3] (levetiracetam 95.2 mg/kg i.p., 120 min after injection); 163.1 (4.43) g in data set [3] (levetiracetam 95.2 mg/kg i.p., 180 min after injection); 169.7 (6.00) g in data set [3] (levetiracetam 95.2 mg/kg i.p., after diabetes, 0 min (base threshold)); 309.4 (15.25) g in data set [3] (levetiracetam 120 mg/kg i.p. group, before diabetes (baseline), mean (SEM)); 331.9 g in data set [3] (levetiracetam 120 mg/kg i.p., 15 min after injection); 315.0 (30.00)* g in data set [3] (levetiracetam 120 mg/kg i.p., 30 min after injection). The vocalization threshold in data set [3] (levetiracetam 120 mg/kg i.p., 45 min after injection) is listed as 262.5 g; in data set [3] (levetiracetam 120 mg/kg i.p., 60 min after injection) it was 213.8 (13.52)* g; in data set [3] (levetiracetam 120 mg/kg i.p., 90 min after injection), 176.3 (7.36) g; in data set [3] (levetiracetam 120 mg/kg i.p., 120 min after injection), 174.4 (6.30) g; in data set [3] (levetiracetam 120 mg/kg i.p., 180 min after injection), 168.8 (4.70) g; in data set [3] (levetiracetam 120 mg/kg i.p., after diabetes, 0 min (base threshold)), 161.3 (7.23) g.

One may read the Kp as tissue or fluid exposure divided by exposure in the circulation. Take `CCCC(CCC)C(=O)[O-].[Na+]` [Valproate, sodium valproate]: the Kp at 1 h in data set [4] came to 0.13 ± 0.02.
